Assay results taken from article PMC9892719, “High-throughput screening method for discovering CatSper inhibitors using membrane depolarization caused by external calcium chelation and fluorescent cell barcoding” (Frontiers in Cell and Developmental Biology, 2023).

Target: T1, CatSper (Mus musculus, UniProt A2ARP9+Q80W99+Q8BVN3+Q91ZR5)
T1 construct: gene Catsper1; native channel complex in live cauda epididymal sperm; pore of four homologous subunits CatSper 1-4 plus auxiliary subunits; with Cation channel sperm-associated auxiliary subunit beta; Cation channel sperm-associated auxiliary subunit gamma 2; Cation channel sperm-associated auxiliary subunit delta; Cation channel sperm-associated auxiliary subunit epsilon; Cation channel sperm-associated auxiliary subunit zeta; Cation channel sperm-associated targeting subunit tau; Cation channel sperm-associated auxiliary subunit TMEM262; Solute carrier organic anion transporter family member 6C1; Cation channel sperm-associated auxiliary subunit TMEM249
Test: EGTA-induced Na+ depolarization of live sperm, DiSC3([…]) fluorescence, flow cytometry and spectrofluorometry
Type: cell-based
Conditions: non-capacitated sperm, NC TYH medium pH 7.4, 3.5 mM EGTA (free Ca2+ 138 nM)

In the case of `O=C(c1cccs1)c1no[n+]([O-])c1C(=O)c1cccs1` [HC-056456], the “block of EGTA-induced depolarization at 10 μM” value is reported as “HC-056456 inhibits CatSper in a concentration-dependent manner”.
